“And” between values parts separate entries of the source, which are not always exact repeats. Equal entries are not always repeated. Inconclusive results and toxic doses are left out. Cut-off read from the data, not from the text of the source: active = T/C of 150% or more; inactive = T/C below 125%.
System: L1210 leukemia ip in BDF1 mice, survival T/C
Experiment: NCI In Vivo Anticancer Drug Screen. Data for tumor model L1210 Leukemia (intraperitoneal) in B6D2F1 (BDF1) mice
Conditions: endpoint: mean survival time, higher = longer survival
Summary of the method: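 Transplanted-tumor mice were given test agent; controls received vehicle only. Survival readings from the two groups were divided (treated over control).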

[1] = dose: 100.0 mg/kg/injection, schedule: Q04DX003 (ip), vehicle: saline
[2] = dose: 200.0 mg/kg/injection, schedule: Q04DX003 (ip), vehicle: saline
[3] = dose: 400.0 mg/kg/injection, schedule: Q04DX003 (ip), vehicle: saline
[4] = dose: 50.0 mg/kg/injection, schedule: Q01DX009 (ip), vehicle: Klucel (hydroxypropylcellulose) (HPC)
[5] = dose: 100.0 mg/kg/injection, schedule: Q01DX009 (ip), vehicle: Klucel (hydroxypropylcellulose) (HPC)
[6] = dose: 100.0 mg/kg/injection, schedule: Q04DX003 (ip), vehicle: Klucel (hydroxypropylcellulose) (HPC)
[7] = dose: 200.0 mg/kg/injection, schedule: Q01DX009 (ip), vehicle: Klucel (hydroxypropylcellulose) (HPC)
[8] = dose: 200.0 mg/kg/injection, schedule: Q04DX003 (ip), vehicle: Klucel (hydroxypropylcellulose) (HPC)
[9] = dose: 100.0 mg/kg/injection, schedule: Q01DX001 (ip), vehicle: saline
[10] = dose: 200.0 mg/kg/injection, schedule: Q01DX001 (ip), vehicle: saline
[11] = dose: 400.0 mg/kg/injection, schedule: Q01DX001 (ip), vehicle: saline
[12] = dose: 100.0 mg/kg/injection, schedule: Q01DX001 (ip), vehicle: saline with Tween-80
[13] = dose: 200.0 mg/kg/injection, schedule: Q01DX001 (ip), vehicle: saline with Tween-80
[14] = dose: 400.0 mg/kg/injection, schedule: Q01DX001 (ip), vehicle: saline with Tween-80
[15] = dose: 100.0 mg/kg/injection, schedule: Q04DX003 (ip), vehicle: saline with Tween-80

Measured: T/C

N#CCCOCCOCCC#N
inactive: [1] 109 % of control | [2] 101 % of control | [3] 95 % of control

CCN(CC)C(=O)/C=C/C(=O)N(CC)CC
inactive: [1] 103 % of control | [2] 100 % of control | [3] 100 % of control

CN(C)CCCNC(=S)C(=S)NCCCN(C)C
inactive: [4] 105 % of control | [5] 105 % of control | [6] 94 % of control | [7] 96 % of control | [8] 94 % of control

CCSc1nc(N)c(C(N)=O)cc1C#N
inactive: [5] 95 % of control | [6] 101 % of control | [7] 95 % of control | [8] 98 % of control | dose: 400.0 mg/kg/injection, schedule: Q04DX003 (ip), vehicle: Klucel (hydroxypropylcellulose) (HPC) 97 % of control

CN(C)C(C(N)=O)C(=O)c1ccccc1 (stereo not drawn)
inactive: [9] 102 % of control | [10] 104 % of control | [11] 88 % of control

O=S(=O)(Nc1ccc2ccccc2c1)c1ccccc1
inactive: [12] 103 % of control | [13] 97 % of control | [14] 97 % of control

OC1(CCC2OCCO2)c2ccccc2-c2ccccc21
inactive: [12] 95 % of control | dose: 100.0 mg/kg/injection, schedule: Q01DX009 (ip), vehicle: saline with Tween-80 93 % of control | dose: 100.0 mg/kg/injection, schedule: Q04DX002 (ip), vehicle: saline with Tween-80 95 % of control and 100 % of control | [15] 96 % of control | [13] 90 % of control | dose: 200.0 mg/kg/injection, schedule: Q01DX009 (ip), vehicle: saline with Tween-80 96 % of control and 100 % of control | dose: 200.0 mg/kg/injection, schedule: Q04DX002 (ip), vehicle: saline with Tween-80 93 % of control and 102 % of control | dose: 200.0 mg/kg/injection, schedule: Q04DX003 (ip), vehicle: saline with Tween-80 96 % of control | [14] 93 % of control | dose: 400.0 mg/kg/injection, schedule: Q01DX009 (ip), vehicle: saline with Tween-80 96 % of control and 120 % of control | dose: 400.0 mg/kg/injection, schedule: Q04DX002 (ip), vehicle: saline with Tween-80 95 % of control | dose: 400.0 mg/kg/injection, schedule: Q04DX003 (ip), vehicle: saline with Tween-80 95 % of control

Cc1ccc2c(c1)c(C)cc(=O)n2C
inactive: dose: 100.0 mg/kg/injection, schedule: Q01DX001 (ip), vehicle: other 96 % of control | dose: 200.0 mg/kg/injection, schedule: Q01DX001 (ip), vehicle: other 117 % of control

CC1CCCC2=[N+]1CCCC2 (stereo not drawn)
inactive: dose: 50.0 mg/kg/injection, schedule: Q01DX001 (ip), vehicle: carboxymethylcellulose (CMC) 96 % of control | dose: 100.0 mg/kg/injection, schedule: Q01DX001 (ip), vehicle: carboxymethylcellulose (CMC) 96 % of control | dose: 200.0 mg/kg/injection, schedule: Q01DX001 (ip), vehicle: carboxymethylcellulose (CMC) 93 % of control

CN1CCCC1=Nc1ccc([N+](=O)[O-])cc1
inactive: [5] 104 % of control | [7] 108 % of control | dose: 400.0 mg/kg/injection, schedule: Q01DX009 (ip), vehicle: Klucel (hydroxypropylcellulose) (HPC) 102 % of control

CC(C)=CCC(N)CC=C(C)C
inactive: dose: 12.5 mg/kg/injection, schedule: Q01DX009 (ip), vehicle: Klucel (hydroxypropylcellulose) (HPC) 91 % of control | dose: 25.0 mg/kg/injection, schedule: Q01DX009 (ip), vehicle: Klucel (hydroxypropylcellulose) (HPC) 102 % of control | dose: 25.0 mg/kg/injection, schedule: Q04DX002 (ip), vehicle: Klucel (hydroxypropylcellulose) (HPC) 112 % of control | [4] 106 % of control | dose: 50.0 mg/kg/injection, schedule: Q04DX002 (ip), vehicle: Klucel (hydroxypropylcellulose) (HPC) 105 % of control

CCOC(=O)C1=NN(c2ccccc2)C(=O)C1N=Nc1c(Br)cc(S(N)(=O)=O)cc1Br (stereo not drawn)
inactive: [9] 96 % of control | [10] 101 % of control | [11] 98 % of control

O=c1cc(CCCCCc2ccccc2)[nH]c(=O)[nH]1
inactive: dose: 100.0 mg/kg/injection, schedule: Q01DX001 (ip), vehicle: Klucel (hydroxypropylcellulose) (HPC) 97 % of control | dose: 200.0 mg/kg/injection, schedule: Q01DX001 (ip), vehicle: Klucel (hydroxypropylcellulose) (HPC) 97 % of control | dose: 400.0 mg/kg/injection, schedule: Q01DX001 (ip), vehicle: Klucel (hydroxypropylcellulose) (HPC) 101 % of control

CCCC[P+](CCCC)(CCCC)Cc1ccccc1
inactive: dose: 5.0 mg/kg/injection, schedule: Q01DX001 (ip), vehicle: saline 100 % of control | dose: 10.0 mg/kg/injection, schedule: Q01DX001 (ip), vehicle: saline 119 % of control | dose: 12.5 mg/kg/injection, schedule: Q04DX003 (ip), vehicle: Klucel (hydroxypropylcellulose) (HPC) 104 % of control | dose: 20.0 mg/kg/injection, schedule: Q01DX001 (ip), vehicle: saline 98 % of control | dose: 25.0 mg/kg/injection, schedule: Q04DX003 (ip), vehicle: Klucel (hydroxypropylcellulose) (HPC) 104 % of control | dose: 40.0 mg/kg/injection, schedule: Q01DX001 (ip), vehicle: saline 96 % of control

C[N+](C)(CC(=O)Nc1ccc(Cl)c(C(F)(F)F)c1)Cc1ccc(Cl)cc1
inactive: [15] 100 % of control

O=C1CNC(=O)N1CCCl
inactive: dose: 50.0 mg/kg/injection, schedule: Q04DX003 (ip), vehicle: saline 100 % of control | dose: 100.0 mg/kg/injection, schedule: Q01DX009 (ip), vehicle: saline 100 % of control | [1] 103 % of control | dose: 200.0 mg/kg/injection, schedule: Q01DX009 (ip), vehicle: saline 104 % of control | dose: 400.0 mg/kg/injection, schedule: Q01DX009 (ip), vehicle: saline 113 % of control | [3] 94 % of control

CN=C(NC)c1ccc(NC(=O)Nc2ccc(C)c(NC(=O)Nc3ccc(C(=NC)NC)cc3)c2)cc1
inactive: dose: 4.5 mg/kg/injection, schedule: Q01DX Z (ip), vehicle: water 98 % of control | dose: 9.0 mg/kg/injection, schedule: Q01DX Z (ip), vehicle: water 98 % of control | dose: 18.0 mg/kg/injection, schedule: Q01DX Z (ip), vehicle: water 98 % of control

CCCCP(=[Se])(CCCC)CCCC
inactive: dose: 0.78 mg/kg/injection, schedule: Q01DX009 (ip), vehicle: Klucel (hydroxypropylcellulose) (HPC) 93 % of control | dose: 1.56 mg/kg/injection, schedule: Q01DX009 (ip), vehicle: Klucel (hydroxypropylcellulose) (HPC) 97 % of control | dose: 3.12 mg/kg/injection, schedule: Q01DX009 (ip), vehicle: Klucel (hydroxypropylcellulose) (HPC) 112 % of control | dose: 6.25 mg/kg/injection, schedule: Q01DX009 (ip), vehicle: Klucel (hydroxypropylcellulose) (HPC) 104 % of control

Source: PubChem BioAssay AID248 (DTP/NCI, 2004)
